What was measured:
Assay type in all cases: cell-based, human
SW480A cells = assay: Treatment of SW480A cells with inhibitor of DNA methyltransferases
Description: (§1) DNA methylation is frequently abnormal in colorectal cancer, and it was reported recently that Prox-1 expression is suppressed in human hematological cell lines due to hypermethylation of CpG islands in intron 1 of Prox-1 (Nagai, H. et al., Genes Chromosomes Cancer 38, 13-21 (2003)).

SW480R cells [1] = assay: Treatment of SW480R cells with inhibitor of DNA methyltransferases
Description: as §1

SW480R cells [2] = assay: BrdU incorporation in siRNA transfected SW480R cells
Method: Transfection of siRNAs was carried out using lipofectamine 2000 (Invitrogen) according to manufacturer's instructions using 0.5% (v/v) lipofectamine 2000 reagent for SW480R and 0.4% (v/v) lipofectamine 2000 for adherent SW480 cells and either 2 nM or 100 nM (f.c.) of siRNA. Transfections were carried out in antibiotic-free media for 4-6 hours before changing cells back to normal culture media. For long-term experiments siRNA transfections were repeated after 48-72 h from previous transfection (at protein level the silencing effect was seen to remain efficient for at least 96 h). Normally approximately 90-95% transfection efficiency was achieved. Opti-MEM (Invitrogen) medium was used in preparation of transfection mixtures.
Experiments were conducted to investigate whether Prox-1 plays role in the generation and maintenance of the highly transformed phenotype. Prox-1 mRNA and protein in the SW480R cells was suppressed using Prox-1 targeting siRNA. […] Eventually the Prox-1 siRNA cells started to spread on the plate and a number of increased actin stress fibers could be visualized by phalloidine staining.

SW480R cells [3] = assay: Soft agar assay (anchorage-independent growth); conditions: transfected repeatedly over 8 days, two weeks of growth
Method: FIG. 3 depicts the efficacy of Prox-1 suppression for inhibiting SW480R cell growth in soft agar. SW480R cells were transfected with GFP siPRNA, Prox-1 siRNA A16 or Prox-1 siRNA A25 or left untreated, and seeded in soft agar in triplicate. The number of colonies was scored after two weeks of growth.
For soft agar assay, 2×10^3 and 2×10^4 cells were seeded in triplicate in 1 ml of 0.33% (w/v) agar (Difco) containing D-MEM, 10% fetal bovine serum, 1 mM glutamine and antibiotics in 6-well plates containing 1 ml of 0.5% bottom agar layer. Cells were fed twice a week, and number of colonies per plate was scored after two weeks in culture.
Since anchorage-independent growth is one of the hallmarks of malignant transformation, experiments were conducted to assess the effects of Prox-1 suppression on the growth of SW480R cells in soft agar. SW480R cells were transfected with GFP siPRNA, Prox-1 siRNA A16 or Prox-1 siRNA A25 repeatedly over an 8-day period, or left untreated, and seeded in soft agar in triplicate. The number of colonies was scored after two weeks of growth.

| Compound | Prox-1 mRNA (SW480A cells) | expression of TIMP3 (SW480A cells) | Prox-1 expression (SW480R cells [1]) | BrdU positive cells (SW480R cells [2]) [%] | number of colonies formed in soft agar (SW480R cells [3]) |
| --- | --- | --- | --- | --- | --- |
| Nc1ncn([C@H]2C[C@H](O)[C@@H](CO)O2)c(=O)n1 [5-aza-2′-deoxycytidine] | did not result in the increase | increase | almost completely suppressed |  |  |
| GFP siRNA: control siRNA, sense GACGUAAACGGCCACAAGUUU (SEQ ID NO: 8), antisense ACUUGUGGCCGUUUACGUCUU (SEQ ID NO: 9) (listed as RNA, chemistry not given here; listed as Homo sapiens) |  |  |  | 34±4 |  |
| Prox-1 siRNA A16: siRNA duplex, sense 5′-CUGCAAGCUGGAUAGUGAAGU-3′ (SEQ ID NO: 4), antisense 5′-UUCACUAUCCAGCUUGCAGAU-3′ (SEQ ID NO: 5) (RNA, backbone not given here; listed as Homo sapiens) |  |  |  | 22±0.5 | significantly decreased |
| Prox-1 siRNA A25: siRNA duplex, sense 5′-CUAUGAGCCAGUUUGAUAUUU-3′ (SEQ ID NO: 6), antisense 5′-AUAUCAAACUGGCUCAUAGUU-3′ (SEQ ID NO: 7) (RNA, backbone not given here; listed as Homo sapiens) |  |  |  | 18±1 | significantly decreased |

Reference: patent publication US8029984B2, “Materials and methods for colorectal cancer screening, diagnosis and therapy” (Licentia, Ltd., priority 2003, dated 2011)
